Source: patent US20040127403A1, “Methods for treating and preventing Gram-positive bacteremias” (priority 2002, published 2004)
Converted amounts (≈) assume the structure as drawn. Read-outs that look alike come from different tables or passages of the source.

Columns and labels:
Assay in all cases: MIC, NCCLS broth microdilution
Type in all cases: cell-based
E. faecalis A7789 Line-R = conditions: Enterococcus faecalis, A7789LINER
In short: (§1)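 Broth microdilution followed the NCCLS method, with MICs read in both cation-adjusted Mueller-Hinton broth and trypticase soy broth. Media carrying ramoplanin were supplemented with 0.02% bovine serum albumin to prevent the compound from binding to plastic.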

E. faecalis ATCC29212 = tested on: E. faecalis ATCC29212
In short: as §1

E. faecalis ATCC51299 = conditions: Enterococcus faecalis, ATCC51299, E. faecalis ATCC51299, read-out: MIC
In short: as §1

E. faecium 1836 = conditions: Enterococcus faecium, 1836, E. faecium 1836, read-out: MIC
In short: as §1

E. faecium A-5960 Line-R = conditions: Enterococcus faecium, A5960LINER
In short: as §1

E. faecium A4192 Syn-R = conditions: Enterococcus faecium, A4192SYNR, read-out: MIC
In short: as §1

E. faecium A5959 Line-R = conditions: Enterococcus faecium, A5959LINER
In short: as §1

E. faecium A6345 Line-R = conditions: for MIC: Enterococcus faecium, A6345LINER, E. faecium A6345 Line-R, read-out: MIC
In short: as §1

E. faecium A6350 Line-R = conditions: Enterococcus faecium, A6350LINER, read-out: MIC
In short: as §1

E. faecium ATCC700221 = conditions: Enterococcus faecium, ATCC700221, E. faecium ATCC700221, read-out: MIC
In short: as §1

E. faecium UA210 = conditions: Enterococcus faecium, UA210, E. faecium UA210, read-out: MIC
In short: as §1

E. faecium UA392 = conditions: Enterococcus faecium, UA392, E. faecium UA392, read-out: MIC
In short: as §1

E. gallinarum UA604 = conditions: Enterococcus gallinarum, GALLINARUM, read-out: MIC
In short: as §1

S. aureus ATCC12600 MRSA = conditions: Staphylococcus aureus, read-out: MIC
In short: as §1

S. aureus ATCC19636 MSSA = conditions: Staphylococcus aureus, read-out: MIC
In short: as §1

S. aureus ATCC27660 MSSA = conditions: Staphylococcus aureus, read-out: MIC
In short: as §1

S. aureus ATCC35556 MRSA = conditions: Staphylococcus aureus, read-out: MIC
In short: as §1

S. aureus ATCC43300 MRSA = conditions: Staphylococcus aureus, ATCC 43300 / MRSA / VISA, S. aureus ATCC43300 MRSA/VISA, read-out: MIC
In short: as §1

[1] = tested on: S. aureus ATCC700699 MRSA/VISA; conditions: Staphylococcus aureus, S. aureus ATCC700699 MRSA/VISA, read-out: MIC
In short: as §1

S. epidermidis ATCC12228 = conditions: Staphylococcus epidermidis, ATCC12228, S. epidermidis ATCC12228, read-out: MIC
In short: as §1

S. epidermidis ATCC35983 = conditions: Staphylococcus epidermidis, ATCC35983, S. epidermidis ATCC35983, read-out: MIC
In short: as §1

S. epidermidis ATCC18972 = conditions: Staphylococcus epidermidis, ATCC18972, S. epidermidis ATCC18972, read-out: MIC
S. epidermidis ATCC35984 = conditions: Staphylococcus epidermidis, ATCC35984, S. epidermidis ATCC35984, read-out: MIC
[2] = Enterococcus faecalis, ATCC29212, E. faecalis ATCC29212, Table 6, 1st, read-out: MIC
[3] = Enterococcus faecalis, ATCC29212, E. faecalis ATCC29212, Table 6, 2nd, read-out: MIC

COc1cccc(OC)c1C(=O)N[C@@H]1C(=O)N2[C@@H]1SC(C)(C)[C@@H]2C(=O)O [Meth., methicillin]
MIC (E. faecalis A7789 Line-R; Table 6, 1st): > 16 µg/mL
MIC (E. faecalis A7789 Line-R; Table 6, 2nd): 32 µg/mL (≈ 84.1 µM)
MIC (E. faecalis ATCC29212; E. faecalis ATCC29212, Table 6, 1st): 16 µg/mL (≈ 42.1 µM)
MIC (E. faecalis ATCC29212; [2]): > 16 µg/mL
MIC (E. faecalis ATCC29212; [3]): 32 µg/mL (≈ 84.1 µM)
MIC (E. faecalis ATCC51299; Table 6, 1st): > 16 µg/mL
MIC (E. faecalis ATCC51299; Table 6, 2nd): 32 µg/mL (≈ 84.1 µM)
MIC (E. faecium 1836; Table 6, 1st): > 16 µg/mL
MIC (E. faecium 1836; Table 6, 2nd): > 64 µg/mL
MIC (E. faecium A-5960 Line-R; Table 6, 1st): > 16 µg/mL
MIC (E. faecium A-5960 Line-R; Table 6, 2nd): > 64 µg/mL
MIC (E. faecium A4192 Syn-R; Table 6, 1st): > 16 µg/mL
MIC (E. faecium A4192 Syn-R; Table 6, 2nd): > 64 µg/mL
MIC (E. faecium A5959 Line-R; Table 6, 1st): > 16 µg/mL
MIC (E. faecium A5959 Line-R; Table 6, 2nd): > 64 µg/mL
MIC (E. faecium A6345 Line-R; Table 6, 1st): > 16 µg/mL
MIC (E. faecium A6345 Line-R; Table 6, 2nd): > 64 µg/mL
MIC (E. faecium A6350 Line-R; Table 6, 1st): > 16 µg/mL
MIC (E. faecium A6350 Line-R; Table 6, 2nd): 64 µg/mL (≈ 168 µM)
MIC (E. faecium ATCC700221; Table 6, 1st): > 16 µg/mL
MIC (E. faecium ATCC700221; Table 6, 2nd): > 64 µg/mL
MIC (E. faecium UA210; Table 6, 1st): > 16 µg/mL
MIC (E. faecium UA210; Table 6, 2nd): > 64 µg/mL
MIC (E. faecium UA392; Table 6, 1st): > 16 µg/mL
MIC (E. faecium UA392; Table 6, 2nd): > 64 µg/mL
MIC (E. gallinarum UA604; Table 6, 1st): > 16 µg/mL
MIC (E. gallinarum UA604; Table 6, 2nd): > 64 µg/mL
MIC (S. aureus ATCC12600 MRSA; Table 6, 1st): 2 µg/mL (≈ 5.26 µM)
MIC (S. aureus ATCC12600 MRSA; Table 6, 2nd): > 64 µg/mL
MIC (S. aureus ATCC19636 MSSA; Table 6, 1st): 1 µg/mL (≈ 2.63 µM)
MIC (S. aureus ATCC19636 MSSA; Table 6, 2nd): 2 µg/mL (≈ 5.26 µM)
MIC (S. aureus ATCC27660 MSSA; Table 6, 1st): 2 µg/mL (≈ 5.26 µM)
MIC (S. aureus ATCC27660 MSSA; Table 6, 2nd): 4 µg/mL (≈ 10.5 µM)
MIC (S. aureus ATCC35556 MRSA; Table 6, 1st): 1 µg/mL (≈ 2.63 µM)
MIC (S. aureus ATCC35556 MRSA; Table 6, 2nd): 1 µg/mL (≈ 2.63 µM)
MIC (S. aureus ATCC43300 MRSA; Table 6, 1st): 8 µg/mL (≈ 21 µM)
MIC (S. aureus ATCC43300 MRSA; Table 6, 2nd): 8 µg/mL (≈ 21 µM)
MIC ([1]; Table 6, 1st): > 16 µg/mL
MIC ([1]; Table 6, 2nd): > 64 µg/mL
MIC (S. epidermidis ATCC12228; Table 6, 1st): 1 µg/mL (≈ 2.63 µM)
MIC (S. epidermidis ATCC12228; Table 6, 2nd): 2 µg/mL (≈ 5.26 µM)
MIC (S. epidermidis ATCC35983; Table 6, 1st): > 16 µg/mL
MIC (S. epidermidis ATCC35983; Table 6, 2nd): 64 µg/mL (≈ 168 µM)
MIC (S. epidermidis ATCC18972; Table 6, 1st): > 16 µg/mL
MIC (S. epidermidis ATCC18972; Table 6, 2nd): 64 µg/mL (≈ 168 µM)
MIC (S. epidermidis ATCC35984; Table 6, 1st): > 16 µg/mL
MIC (S. epidermidis ATCC35984; Table 6, 2nd): > 64 µg/mL

CC(=O)NC[C@H]1CN(c2ccc(N3CCOCC3)c(F)c2)C(=O)O1 [Linezolid]
MIC (E. faecalis A7789 Line-R; Table 6, 1st): > 16 µg/mL
MIC (E. faecalis A7789 Line-R; Table 6, 2nd): 32 µg/mL (≈ 94.9 µM)
MIC (E. faecalis ATCC29212; [2]): 4 µg/mL (≈ 11.9 µM)
MIC (E. faecalis ATCC29212; [3]): 2 µg/mL (≈ 5.93 µM)
MIC (E. faecalis ATCC51299; Table 6, 1st): 2 µg/mL (≈ 5.93 µM)
MIC (E. faecalis ATCC51299; Table 6, 2nd): 2 µg/mL (≈ 5.93 µM)
MIC (E. faecium 1836; Table 6, 1st): 4 µg/mL (≈ 11.9 µM)
MIC (E. faecium 1836; Table 6, 2nd): 2 µg/mL (≈ 5.93 µM)
MIC (E. faecium A-5960 Line-R; Table 6, 1st): > 16 µg/mL
MIC (E. faecium A-5960 Line-R; Table 6, 2nd): 32 µg/mL (≈ 94.9 µM)
MIC (E. faecium A4192 Syn-R; Table 6, 1st): 4 µg/mL (≈ 11.9 µM)
MIC (E. faecium A4192 Syn-R; Table 6, 2nd): 2 µg/mL (≈ 5.93 µM)
MIC (E. faecium A5959 Line-R; Table 6, 1st): > 16 µg/mL
MIC (E. faecium A5959 Line-R; Table 6, 2nd): 16 µg/mL (≈ 47.4 µM)
reference MIC for strains used for killing curve (E. faecium A6345 Line-R; E. faecium A6345 Line-R. as printed, second row of Table 3): 16 µg/mL
reference MIC for strains used for killing curve (E. faecium A6345 Line-R; E. faecium A6345 Line-R., first row of Table 3): 16 to 32 µg/mL
MIC (E. faecium A6345 Line-R; Table 6, 1st): > 16 µg/mL
MIC (E. faecium A6345 Line-R; Table 6, 2nd): 32 µg/mL (≈ 94.9 µM)
MIC (E. faecium A6350 Line-R; Table 6, 1st): 4 µg/mL (≈ 11.9 µM)
MIC (E. faecium A6350 Line-R; Table 6, 2nd): 2 µg/mL (≈ 5.93 µM)
MIC (E. faecium ATCC700221; Table 6, 1st): 4 µg/mL (≈ 11.9 µM)
MIC (E. faecium ATCC700221; Table 6, 2nd): 2 µg/mL (≈ 5.93 µM)
MIC (E. faecium UA210; Table 6, 1st): 4 µg/mL (≈ 11.9 µM)
MIC (E. faecium UA210; Table 6, 2nd): 2 µg/mL (≈ 5.93 µM)
MIC (E. faecium UA392; Table 6, 1st): 4 µg/mL (≈ 11.9 µM)
MIC (E. faecium UA392; Table 6, 2nd): 2 µg/mL (≈ 5.93 µM)
MIC (E. gallinarum UA604; Table 6, 1st): 4 µg/mL (≈ 11.9 µM)
MIC (E. gallinarum UA604; Table 6, 2nd): 2 µg/mL (≈ 5.93 µM)
MIC (S. aureus ATCC12600 MRSA; Table 6, 1st): 4 µg/mL (≈ 11.9 µM)
MIC (S. aureus ATCC12600 MRSA; Table 6, 2nd): 2 µg/mL (≈ 5.93 µM)
MIC (S. aureus ATCC19636 MSSA; Table 6, 1st): 4 µg/mL (≈ 11.9 µM)
MIC (S. aureus ATCC19636 MSSA; Table 6, 2nd): 2 µg/mL (≈ 5.93 µM)
MIC (S. aureus ATCC27660 MSSA; Table 6, 1st): 4 µg/mL (≈ 11.9 µM)
MIC (S. aureus ATCC27660 MSSA; Table 6, 2nd): 2 µg/mL (≈ 5.93 µM)
MIC (S. aureus ATCC35556 MRSA; Table 6, 1st): 4 µg/mL (≈ 11.9 µM)
MIC (S. aureus ATCC35556 MRSA; Table 6, 2nd): 2 µg/mL (≈ 5.93 µM)
MIC (S. aureus ATCC43300 MRSA; Table 6, 1st): 4 µg/mL (≈ 11.9 µM)
MIC (S. aureus ATCC43300 MRSA; Table 6, 2nd): 2 µg/mL (≈ 5.93 µM)
MIC ([1]; Table 6, 1st): 4 µg/mL (≈ 11.9 µM)
MIC ([1]; Table 6, 2nd): 2 µg/mL (≈ 5.93 µM)
MIC (S. epidermidis ATCC12228; Table 6, 1st): 2 µg/mL (≈ 5.93 µM)
MIC (S. epidermidis ATCC12228; Table 6, 2nd): 2 µg/mL (≈ 5.93 µM)
MIC (S. epidermidis ATCC35983; Table 6, 1st): 2 µg/mL (≈ 5.93 µM)
MIC (S. epidermidis ATCC35983; Table 6, 2nd): 2 µg/mL (≈ 5.93 µM)
MIC (S. epidermidis ATCC18972; Table 6, 1st): 2 µg/mL (≈ 5.93 µM)
MIC (S. epidermidis ATCC18972; Table 6, 2nd): 1 µg/mL (≈ 2.96 µM)
MIC (S. epidermidis ATCC35984; Table 6, 1st): 4 µg/mL (≈ 11.9 µM)
MIC (S. epidermidis ATCC35984; Table 6, 2nd): 2 µg/mL (≈ 5.93 µM)
